Several values for one entry are separate records, joined by “and”; a condition that tells them apart may be missing. Equal values may be shown once.
Tests used:
[1] = tested on: blood uric acid; test: Improvement in hyperuricemia: blood uric acid level in patients given troglitazone; assay type: in vivo, human
Protocol: The level of uric acid in the blood of a patient may be measured in a conventional manner. Specifically, blood is collected before and after the administration, for a predetermined period, of a medicament to a patient suffering from hyperuricemia and then the blood uric acid level is measured, for example, by the uricase catalase method [Kageyama: Clin. Chim. Acta., 31, 421-426 (1971)]. A measuring kit employing the above method is commercially available (“Uricolor 400”, trade name; product of Ono Pharmaceutical Co., Ltd.)
4 adult human patients who had suffered from diabetes and hyperuricemia and whose blood uric acid level was not less than 7.0 mg/dl, were administered orally 200 mg of troglitazone twice a day (in the morning and in the evening). This administration was continued for 4 weeks. Both after and before administration, blood was collected and the blood uric acid level was measured.

[2] = tested on: ddY mice (male); assay type: in vivo; details: 300 mg/kg orally, three male ddY mice, observed for 5 days
Protocol: The acute toxicity of troglitazone was measured in a conventional manner. Specifically, 300 mg/kg of troglitazone was administered orally to three ddY mice (male), which were then observed for 5 days.

[3] = tested on: uric acid; details: clinical examination values, Rinsho Iyaku 9, Suppl.3, 14 (1993), cited from earlier work

SMILES: Cc1c(C)c2c(c(C)c1O)CCC(C)(COc1ccc(CC3SC(=O)NC3=O)cc1)O2 (stereo not drawn) [troglitazone, 5-[4-(6-hydroxy-2,5,7,8-tetramethylchroman-2-ylmethoxy)benzyl]thiazolidine-2,4-dione]
- Blood uric acid level, Week 4 ([1]; adult human patients with diabetes and hyperuricemia, 200 mg orally twice a day for 4 weeks): 5.2 mg/dL and 5.3 mg/dL and 5.6 mg/dL
- Blood uric acid level, Week 0 ([1]; adult human patients with diabetes and hyperuricemia, before administration (baseline)): 7.2 mg/dL and 7.6 mg/dL and 7.9 mg/dL
- blood uric acid level after administration (summary of the Table) ([1]; patients with blood uric acid 7.0 mg/dl or greater, 200 mg orally twice a day, 4 weeks, normal range): ≤ 6.0 mg/dL
- survival (acute toxicity) [2]: All of them survived
- uric acid level before administration ([3]; baseline): 4.7±1.7
- uric acid level after administration [3]: 4.4±1.4

Source: patent publication US6353009B1, “Method for the treatment and prevention of hyperuricemia” (Sankyo Company, Limited, priority 1997, dated 2002)
